What all share (experiment): Kinase panel study
Type in all cases: biochemical
What all share (conditions): read-out: Percentage of inhibition; for inhibition at 1 µM: 1000nM; for inhibition at 10 µM: 10000nM

The target in one test is T1, PRKG1 (Homo sapiens, UniProt Q13976).
T1 construct: purchased Thermo Fisher Scientific
T1 sequence (Q13976 1-671): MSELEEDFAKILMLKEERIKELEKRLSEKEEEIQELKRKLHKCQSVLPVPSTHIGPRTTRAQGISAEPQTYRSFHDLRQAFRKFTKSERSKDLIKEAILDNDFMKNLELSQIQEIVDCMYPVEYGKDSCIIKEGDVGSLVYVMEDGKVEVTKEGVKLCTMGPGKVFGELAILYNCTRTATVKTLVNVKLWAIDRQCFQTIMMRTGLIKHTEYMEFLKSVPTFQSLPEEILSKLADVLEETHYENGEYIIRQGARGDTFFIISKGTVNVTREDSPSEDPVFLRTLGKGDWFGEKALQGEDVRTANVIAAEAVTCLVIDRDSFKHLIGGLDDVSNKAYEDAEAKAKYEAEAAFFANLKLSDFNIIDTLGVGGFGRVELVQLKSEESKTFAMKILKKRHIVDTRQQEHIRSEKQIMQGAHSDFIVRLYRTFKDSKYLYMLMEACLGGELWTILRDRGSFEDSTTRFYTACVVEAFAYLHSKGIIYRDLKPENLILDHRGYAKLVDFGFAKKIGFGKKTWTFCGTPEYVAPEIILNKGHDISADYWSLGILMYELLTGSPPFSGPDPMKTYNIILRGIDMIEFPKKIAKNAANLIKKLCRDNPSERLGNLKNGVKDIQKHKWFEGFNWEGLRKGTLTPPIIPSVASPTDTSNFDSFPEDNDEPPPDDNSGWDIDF
A digest of the protocol: (§1)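 Readout is percentage kinase inhibition. Testing used 1 µM or 10 µM compound in externally run ZLyte/Adapta in vitro assays, and IC50 values were derived within the same panel.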

The next test has as its target T2, ABL1 F317I (Homo sapiens, UniProt P00519, F317I).
T2 construct: purchased Thermo Fisher Scientific
A digest of the protocol: as §1

Another test deals with T3, RET S891A (Homo sapiens, UniProt P07949, S891A).
T3 construct: purchased Thermo Fisher Scientific
T3 sequence (P07949 29-1114 S891A): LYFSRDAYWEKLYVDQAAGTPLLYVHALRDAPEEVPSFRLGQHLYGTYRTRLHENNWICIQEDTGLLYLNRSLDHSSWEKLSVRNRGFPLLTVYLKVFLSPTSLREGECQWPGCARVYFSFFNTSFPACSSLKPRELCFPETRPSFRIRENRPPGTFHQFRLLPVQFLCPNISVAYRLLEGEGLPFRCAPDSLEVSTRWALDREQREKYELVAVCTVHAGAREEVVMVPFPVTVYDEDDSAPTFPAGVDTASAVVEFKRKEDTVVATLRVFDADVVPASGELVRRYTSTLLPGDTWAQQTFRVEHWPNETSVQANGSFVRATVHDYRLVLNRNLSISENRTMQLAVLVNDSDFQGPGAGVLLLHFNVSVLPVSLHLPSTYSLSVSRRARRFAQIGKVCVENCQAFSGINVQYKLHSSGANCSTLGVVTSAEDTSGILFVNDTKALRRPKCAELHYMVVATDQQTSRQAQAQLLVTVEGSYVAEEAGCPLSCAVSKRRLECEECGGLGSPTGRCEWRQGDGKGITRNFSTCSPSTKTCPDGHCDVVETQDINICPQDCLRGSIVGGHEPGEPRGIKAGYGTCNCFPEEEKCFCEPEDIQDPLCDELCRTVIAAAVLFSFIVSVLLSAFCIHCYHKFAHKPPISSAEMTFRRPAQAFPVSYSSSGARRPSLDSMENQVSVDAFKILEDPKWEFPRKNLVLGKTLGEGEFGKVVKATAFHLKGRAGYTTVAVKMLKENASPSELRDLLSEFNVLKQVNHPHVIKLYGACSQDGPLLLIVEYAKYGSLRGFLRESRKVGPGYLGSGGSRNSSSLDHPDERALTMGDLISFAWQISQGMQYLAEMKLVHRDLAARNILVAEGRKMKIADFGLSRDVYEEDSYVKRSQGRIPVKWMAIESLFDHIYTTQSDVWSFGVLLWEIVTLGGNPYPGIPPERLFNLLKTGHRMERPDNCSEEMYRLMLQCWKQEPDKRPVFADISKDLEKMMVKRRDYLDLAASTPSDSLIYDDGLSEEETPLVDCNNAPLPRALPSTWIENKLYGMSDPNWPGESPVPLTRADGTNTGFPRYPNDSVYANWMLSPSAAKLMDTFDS
A digest of the protocol:
as §1

In the next test the target is T4, FES (FPS) (Homo sapiens, UniProt P07332).
T4 construct: purchased Thermo Fisher Scientific
Summed up:
as §1

Another test addresses T5, MET M1250T (Homo sapiens, UniProt P08581, M1250T).
T5 construct: purchased Thermo Fisher Scientific
A digest of the protocol:
as §1

The next test deals with T6, IGF1R (Homo sapiens, UniProt P08069).
T6 construct: purchased Thermo Fisher Scientific
A digest of the protocol: as §1

The target in another test is T7, CDC42 BPA (MRCKA) (Homo sapiens, UniProt Q5VT25).
T7 construct: purchased Thermo Fisher Scientific
T7 sequence (Q5VT25 whole entry): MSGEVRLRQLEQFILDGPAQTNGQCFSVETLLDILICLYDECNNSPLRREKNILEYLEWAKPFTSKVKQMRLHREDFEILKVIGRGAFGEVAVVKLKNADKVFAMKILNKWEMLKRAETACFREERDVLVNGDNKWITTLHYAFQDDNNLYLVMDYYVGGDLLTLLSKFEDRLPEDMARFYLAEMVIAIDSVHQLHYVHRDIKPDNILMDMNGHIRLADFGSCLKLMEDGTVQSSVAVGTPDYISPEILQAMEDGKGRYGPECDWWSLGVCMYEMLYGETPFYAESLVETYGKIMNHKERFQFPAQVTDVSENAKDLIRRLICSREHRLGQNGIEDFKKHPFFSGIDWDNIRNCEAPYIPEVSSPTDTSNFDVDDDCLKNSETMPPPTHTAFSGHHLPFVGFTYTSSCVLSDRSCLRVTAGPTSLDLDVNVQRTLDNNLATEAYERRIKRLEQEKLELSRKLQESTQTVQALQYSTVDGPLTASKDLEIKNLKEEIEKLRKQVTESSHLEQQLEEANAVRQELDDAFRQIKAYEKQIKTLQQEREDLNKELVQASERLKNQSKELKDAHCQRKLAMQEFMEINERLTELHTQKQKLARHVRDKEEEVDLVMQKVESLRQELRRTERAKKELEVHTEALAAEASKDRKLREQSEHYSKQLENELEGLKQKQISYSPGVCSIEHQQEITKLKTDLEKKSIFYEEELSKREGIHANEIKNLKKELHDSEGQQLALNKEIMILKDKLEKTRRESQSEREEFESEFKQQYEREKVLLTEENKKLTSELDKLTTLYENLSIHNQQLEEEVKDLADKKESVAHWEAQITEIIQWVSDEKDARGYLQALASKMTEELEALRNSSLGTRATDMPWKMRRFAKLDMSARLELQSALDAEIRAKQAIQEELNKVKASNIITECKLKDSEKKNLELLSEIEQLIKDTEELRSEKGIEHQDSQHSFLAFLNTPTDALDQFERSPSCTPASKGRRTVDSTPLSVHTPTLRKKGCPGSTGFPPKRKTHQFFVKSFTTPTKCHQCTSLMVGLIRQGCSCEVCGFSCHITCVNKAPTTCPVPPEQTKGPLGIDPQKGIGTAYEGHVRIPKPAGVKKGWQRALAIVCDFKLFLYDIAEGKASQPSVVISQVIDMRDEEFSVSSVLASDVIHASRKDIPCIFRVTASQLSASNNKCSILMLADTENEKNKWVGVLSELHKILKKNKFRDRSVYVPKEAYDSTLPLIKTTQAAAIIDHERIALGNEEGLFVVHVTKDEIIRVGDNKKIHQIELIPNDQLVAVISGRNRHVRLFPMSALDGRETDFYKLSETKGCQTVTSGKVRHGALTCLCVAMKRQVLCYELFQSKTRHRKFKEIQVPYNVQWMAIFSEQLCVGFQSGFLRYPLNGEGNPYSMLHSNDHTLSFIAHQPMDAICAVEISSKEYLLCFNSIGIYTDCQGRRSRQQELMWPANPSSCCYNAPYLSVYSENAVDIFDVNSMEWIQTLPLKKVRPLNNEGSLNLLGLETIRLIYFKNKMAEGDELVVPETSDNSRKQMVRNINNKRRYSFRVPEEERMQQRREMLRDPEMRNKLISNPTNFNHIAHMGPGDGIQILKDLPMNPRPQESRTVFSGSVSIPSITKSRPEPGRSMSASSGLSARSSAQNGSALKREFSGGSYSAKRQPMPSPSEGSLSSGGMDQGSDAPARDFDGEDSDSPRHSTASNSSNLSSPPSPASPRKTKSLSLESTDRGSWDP
A digest of the protocol:
as §1

For a further test, the target named is T8, EEF2K (Homo sapiens, UniProt O00418).
T8 construct: purchased Thermo Fisher Scientific
A digest of the protocol: as §1

Another test deals with T9, FRK (PTK5) (Homo sapiens, UniProt P42685).
T9 construct: purchased Thermo Fisher Scientific
T9 sequence (P42685 whole entry): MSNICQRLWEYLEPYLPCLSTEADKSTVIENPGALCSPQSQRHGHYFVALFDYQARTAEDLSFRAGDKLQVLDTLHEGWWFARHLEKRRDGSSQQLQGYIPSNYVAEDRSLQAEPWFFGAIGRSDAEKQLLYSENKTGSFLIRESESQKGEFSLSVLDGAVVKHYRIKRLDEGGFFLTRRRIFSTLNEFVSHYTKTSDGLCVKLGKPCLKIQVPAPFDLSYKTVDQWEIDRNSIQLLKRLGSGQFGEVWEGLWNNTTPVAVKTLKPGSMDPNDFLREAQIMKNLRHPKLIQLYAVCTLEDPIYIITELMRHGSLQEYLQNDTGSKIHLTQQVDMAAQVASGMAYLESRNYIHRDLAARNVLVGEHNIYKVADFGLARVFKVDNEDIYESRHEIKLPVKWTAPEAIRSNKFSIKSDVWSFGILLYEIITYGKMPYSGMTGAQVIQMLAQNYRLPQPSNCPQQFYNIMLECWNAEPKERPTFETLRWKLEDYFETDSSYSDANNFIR
A digest of the protocol:
as §1

For the next test, the target named is T10, SRPK1 (Homo sapiens, UniProt Q96SB4).
T10 construct: purchased Thermo Fisher Scientific
A digest of the protocol:
as §1

A further test addresses T11, STK25 (YSK1) (Homo sapiens, UniProt O00506).
T11 construct: purchased Thermo Fisher Scientific
A digest of the protocol:
as §1

The target in the next test is T12, STK22B (TSSK2) (Homo sapiens, UniProt Q96PF2).
T12 construct: purchased Thermo Fisher Scientific
T12 sequence (Q96PF2 1-358): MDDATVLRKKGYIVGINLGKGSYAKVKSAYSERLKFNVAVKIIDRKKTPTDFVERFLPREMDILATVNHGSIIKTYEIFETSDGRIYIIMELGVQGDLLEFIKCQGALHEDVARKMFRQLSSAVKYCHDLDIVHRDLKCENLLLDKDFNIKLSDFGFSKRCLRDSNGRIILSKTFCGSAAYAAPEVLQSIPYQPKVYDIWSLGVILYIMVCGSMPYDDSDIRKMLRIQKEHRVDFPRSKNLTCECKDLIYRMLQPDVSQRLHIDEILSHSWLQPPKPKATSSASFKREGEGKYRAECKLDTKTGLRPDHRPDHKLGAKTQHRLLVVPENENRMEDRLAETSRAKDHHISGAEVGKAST
A digest of the protocol: as §1

This note sets out measurements from EP4467141A1, “PYRAZOLO-QUINOLINES AS SELECTIVE INHIBITORS OF GENOTOXIC STRESS-INDUCED IKK/NF- KB PATHWAYS FOR CANCER THERAPY” (Max-Delbrück-Centrum für Molekulare Medizin in der …, priority 2023, dated 2024).

The structures appear in SMILES notation.

The inhibition is the drop in the measured response relative to a control, in per cent.

T5 sequence (P08581 25-1390 M1250T): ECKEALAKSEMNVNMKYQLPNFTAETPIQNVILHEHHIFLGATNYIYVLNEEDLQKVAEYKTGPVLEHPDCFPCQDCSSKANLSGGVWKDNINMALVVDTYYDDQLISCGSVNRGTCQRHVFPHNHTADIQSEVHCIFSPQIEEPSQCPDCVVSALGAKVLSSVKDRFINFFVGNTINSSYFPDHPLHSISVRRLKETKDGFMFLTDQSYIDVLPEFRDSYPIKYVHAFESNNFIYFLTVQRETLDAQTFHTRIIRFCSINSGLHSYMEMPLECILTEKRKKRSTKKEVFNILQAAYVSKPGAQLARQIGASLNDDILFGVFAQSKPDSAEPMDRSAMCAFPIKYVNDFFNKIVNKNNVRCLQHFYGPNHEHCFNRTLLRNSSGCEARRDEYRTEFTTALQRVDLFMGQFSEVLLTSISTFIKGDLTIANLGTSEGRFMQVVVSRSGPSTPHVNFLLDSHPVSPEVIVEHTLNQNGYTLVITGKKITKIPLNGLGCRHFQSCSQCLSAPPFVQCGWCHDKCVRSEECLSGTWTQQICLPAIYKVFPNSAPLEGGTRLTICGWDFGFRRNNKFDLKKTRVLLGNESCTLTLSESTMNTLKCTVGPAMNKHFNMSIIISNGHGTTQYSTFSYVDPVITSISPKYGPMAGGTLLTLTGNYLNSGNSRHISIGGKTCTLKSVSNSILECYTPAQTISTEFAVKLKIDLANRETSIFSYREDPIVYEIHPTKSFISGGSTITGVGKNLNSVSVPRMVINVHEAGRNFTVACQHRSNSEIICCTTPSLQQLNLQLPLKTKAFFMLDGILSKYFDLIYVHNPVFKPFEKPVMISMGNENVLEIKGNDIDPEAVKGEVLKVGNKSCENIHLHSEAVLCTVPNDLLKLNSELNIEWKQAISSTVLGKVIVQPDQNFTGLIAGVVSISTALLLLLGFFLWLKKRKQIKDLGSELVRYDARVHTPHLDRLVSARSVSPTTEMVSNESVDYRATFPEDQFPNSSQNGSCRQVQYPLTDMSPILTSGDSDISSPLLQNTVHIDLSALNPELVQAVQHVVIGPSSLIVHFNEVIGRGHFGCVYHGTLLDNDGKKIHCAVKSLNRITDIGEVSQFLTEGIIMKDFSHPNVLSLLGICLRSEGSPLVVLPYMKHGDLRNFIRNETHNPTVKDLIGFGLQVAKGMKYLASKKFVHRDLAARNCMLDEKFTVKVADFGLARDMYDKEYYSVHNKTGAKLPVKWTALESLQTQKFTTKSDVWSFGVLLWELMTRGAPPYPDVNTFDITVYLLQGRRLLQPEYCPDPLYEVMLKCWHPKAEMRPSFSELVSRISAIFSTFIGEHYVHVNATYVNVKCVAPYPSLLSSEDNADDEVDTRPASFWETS
T11 sequence (O00506 whole entry): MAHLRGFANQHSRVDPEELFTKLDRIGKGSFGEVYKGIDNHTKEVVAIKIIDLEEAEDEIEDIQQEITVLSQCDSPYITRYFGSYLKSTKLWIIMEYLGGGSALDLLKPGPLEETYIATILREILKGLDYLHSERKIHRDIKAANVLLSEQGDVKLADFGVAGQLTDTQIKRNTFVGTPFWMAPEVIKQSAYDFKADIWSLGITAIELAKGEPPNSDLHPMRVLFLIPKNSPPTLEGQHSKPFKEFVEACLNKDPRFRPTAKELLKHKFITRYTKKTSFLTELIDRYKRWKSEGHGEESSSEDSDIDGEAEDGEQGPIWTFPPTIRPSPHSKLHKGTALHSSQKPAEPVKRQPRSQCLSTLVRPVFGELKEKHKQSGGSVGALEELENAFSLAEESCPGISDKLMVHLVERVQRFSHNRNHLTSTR

Take `COc1ccc2c(c1OC)c(=O)n1c3ccc(O)cc3c3ccnc2c31` [MW01, 5-Hydroxy-10,11-dimethoxy-9H-benzo[c]indolo[3,2,1-ij][1,5]naphthyridin-9-one]: the inhibition at 1 µM at PRKG1 is 27%; at ABL1 F317I, 8%; on RET S891A it was -3%; on FES (FPS), 0%; on MET M1250T, 19%; at IGF1R, 11%. Further, the inhibition at 1 µM on CDC42 BPA (MRCKA) is 11%; on EEF2K, 11%; on FRK (PTK5), 15%; at SRPK1, 12%; at STK25 (YSK1), -9%; at STK22B (TSSK2) it was 11%. The inhibition at 10 µM worked out at 59% on PRKG1; 19% at ABL1 F317I; 30% on RET S891A; 15% at FES (FPS); 42% at MET M1250T; 31% on IGF1R. Besides, the inhibition at 10 µM at CDC42 BPA (MRCKA) is 15%; at EEF2K, 37%; at FRK (PTK5) it was 22%; at SRPK1, 15%; on STK25 (YSK1) it was -3%; on STK22B (TSSK2) it was 20%.

On to `COc1ccc2cc3c(N)nn(C(=O)c4cccc(N(C)C)c4)c3nc2c1` [MW05, (3-Amino-7-methoxypyrazolo[3,4-b]quinolin-1-yl)-[3-(dimethylamino)phenyl]methanone], for which the inhibition at 1 µM on PRKG1 was 5%; at ABL1 F317I, 6%; at RET S891A, -15%; at FES (FPS), 1%; at MET M1250T, 1%; at IGF1R it was -1%. Also, the inhibition at 1 µM on CDC42 BPA (MRCKA) is 9%; at EEF2K it was 3%; at FRK (PTK5), 9%; on SRPK1, 8%; at STK25 (YSK1), -3%; on STK22B (TSSK2), 11%. The inhibition at 10 µM is -11% at PRKG1; -1% at ABL1 F317I; -18% at RET S891A; -1% on FES (FPS); -15% on MET M1250T; -12% on IGF1R. Also, the inhibition at 10 µM on CDC42 BPA (MRCKA) is 2%; on EEF2K it was 5%; on FRK (PTK5) it was 6%; at SRPK1, 10%; on STK25 (YSK1), -11%; at STK22B (TSSK2) it was 2%.
